# Test results reported in patent publication US6541425B1, “Retarding formulations of active substances used for plant protection” (priority 1998, dated 2003).
# Columns and labels:
# [1] = Solubility in water of the active ingredients; assay type: physicochemical; settings: for solubility: water
Molecule,solubility [1] [µg/mL],melting point [°C],Solubility in water [1] [µg/mL]
"CNC(=O)/C(=N/OC)c1ccccc1CO/N=C(C)/C(=N/OC)OCC(C)C [Compound 3, N-methyl-2-[2-(2-isobutoxy-2-(Z)-methoxyimino-1-methyl-(E)-ethylideneaminooxymethyl)phenyl]-2-(E)-methoxyiminoacetamide]",500,68,–
"CCC(C)OC(=N\OC)/C(C)=N/OCc1ccccc1/C(=N\OC)C(=O)NC (centres unmarked) [Compound 2, N-methyl-2-[2-(2-sec-butoxy-2-(Z)-methoxyimino-1-methyl-(E)-ethylideneaminooxymethyl)phenyl]-2-(E)-methoxyiminoacetamide]",1190,48 to 50,–
"CNC(=O)/C(=N/OC)c1ccccc1CO/N=C(C)/C(=N/OC)C(/C)=N/OC [Compound 4, N-methylphenyl-2-((3,4-[E]-bis(methoximino), 2-[E]-oximinopentyl)methyl)-alpha-[E]-methoximinoacetamide]",–,–,450
"CNC(=O)/C(=N/OC)c1ccccc1CO/N=C(C)/C(=N/OC)OC(C)C [Compound 1, N-methyl-2-[2-(2-isopropoxy-2-(Z)-methoxyimino-1-methyl-(E)-ethylideneaminooxymethyl)phenyl]-2-(E)-methoxyiminoacetamide]",1340,57,–
"N-methylphenyl-2-((3-[E]-methoxyimino, 5-methyl, 2-[E]-oximino-hex-4-en-yl)methyl)-alpha-[E]-methoximinoacetamide [Compound 5]",–,–,58
